“Also recorded” adds a separate entry of the source. Where two headings read alike, the source gives them in different places.
What was measured:
[1] = molecular target: human NaV1.7 tamoxifen receptor (Homo sapiens, UniProt Q15858); test: NaV1.7 tritium-labeled tamoxifen competitive binding assay; settings: competition with H^3-Tam
[2] = tested on: endogenously expressed NaVs in cultured DRG neurons; test: Whole cell voltage clamp of sodium current; type: cell-based, mouse; settings: for IC50: read-out: IC50 of DRG INa inhibition
[3] = molecular target: human NaV1.7 (Homo sapiens, UniProt Q15858); test: Voltage clamp of expressed WT NaV1.7 INa
[4] = tested on: knee hyperalgesia in mice after DMM surgery; test: In vivo osteoarthritis pain model; design: species or system mouse; settings: for knee hyperalgesia vs vehicle, 30 minutes after injection / knee withdrawal threshold vs vehicle through 3 hours: 50 μM intra-articular in 0.1% DMSO
[5] = tested on: NaV1.7 F1748A and Y1755A; test: Voltage clamp of NaV1.7 local anesthetic binding site mutations; type: cell-based, human; settings: vs WT NaV1.7
[6] = molecular target: NaV1.7 S969A:D1761A double mutant (Homo sapiens, UniProt Q15858, E1761A/S969A); type: cell-based; settings: read-out: IC50 of INa inhibition, S969A:D1761A double mutant channels
[7] = tested on: NaV1.7 S969A:D1761A double mutant; type: cell-based, human
[8] = tested on: NaV1.7 DII S969A and DIV D1761A; type: cell-based, human; settings: vs WT NaV1.7
[9] = tested on: DRG action potentials; test: Current clamp recording of cultured DRG neuron action potentials; type: cell-based, mouse
[10] = molecular target: NaV1.7 D1458A (Homo sapiens, UniProt Q15858, D1458A); test: Voltage clamp of NaV1.7 alanine substitution in domain III; type: cell-based; settings: vs WT NaV1.7
[11] = tested on: knee hyperalgesia in mice after DMM surgery; settings: 20 mg/kg, ~0.85M, ref Miller et al., 2018; cited from earlier work

Chain of human NaV1.7 (Q15858 whole entry): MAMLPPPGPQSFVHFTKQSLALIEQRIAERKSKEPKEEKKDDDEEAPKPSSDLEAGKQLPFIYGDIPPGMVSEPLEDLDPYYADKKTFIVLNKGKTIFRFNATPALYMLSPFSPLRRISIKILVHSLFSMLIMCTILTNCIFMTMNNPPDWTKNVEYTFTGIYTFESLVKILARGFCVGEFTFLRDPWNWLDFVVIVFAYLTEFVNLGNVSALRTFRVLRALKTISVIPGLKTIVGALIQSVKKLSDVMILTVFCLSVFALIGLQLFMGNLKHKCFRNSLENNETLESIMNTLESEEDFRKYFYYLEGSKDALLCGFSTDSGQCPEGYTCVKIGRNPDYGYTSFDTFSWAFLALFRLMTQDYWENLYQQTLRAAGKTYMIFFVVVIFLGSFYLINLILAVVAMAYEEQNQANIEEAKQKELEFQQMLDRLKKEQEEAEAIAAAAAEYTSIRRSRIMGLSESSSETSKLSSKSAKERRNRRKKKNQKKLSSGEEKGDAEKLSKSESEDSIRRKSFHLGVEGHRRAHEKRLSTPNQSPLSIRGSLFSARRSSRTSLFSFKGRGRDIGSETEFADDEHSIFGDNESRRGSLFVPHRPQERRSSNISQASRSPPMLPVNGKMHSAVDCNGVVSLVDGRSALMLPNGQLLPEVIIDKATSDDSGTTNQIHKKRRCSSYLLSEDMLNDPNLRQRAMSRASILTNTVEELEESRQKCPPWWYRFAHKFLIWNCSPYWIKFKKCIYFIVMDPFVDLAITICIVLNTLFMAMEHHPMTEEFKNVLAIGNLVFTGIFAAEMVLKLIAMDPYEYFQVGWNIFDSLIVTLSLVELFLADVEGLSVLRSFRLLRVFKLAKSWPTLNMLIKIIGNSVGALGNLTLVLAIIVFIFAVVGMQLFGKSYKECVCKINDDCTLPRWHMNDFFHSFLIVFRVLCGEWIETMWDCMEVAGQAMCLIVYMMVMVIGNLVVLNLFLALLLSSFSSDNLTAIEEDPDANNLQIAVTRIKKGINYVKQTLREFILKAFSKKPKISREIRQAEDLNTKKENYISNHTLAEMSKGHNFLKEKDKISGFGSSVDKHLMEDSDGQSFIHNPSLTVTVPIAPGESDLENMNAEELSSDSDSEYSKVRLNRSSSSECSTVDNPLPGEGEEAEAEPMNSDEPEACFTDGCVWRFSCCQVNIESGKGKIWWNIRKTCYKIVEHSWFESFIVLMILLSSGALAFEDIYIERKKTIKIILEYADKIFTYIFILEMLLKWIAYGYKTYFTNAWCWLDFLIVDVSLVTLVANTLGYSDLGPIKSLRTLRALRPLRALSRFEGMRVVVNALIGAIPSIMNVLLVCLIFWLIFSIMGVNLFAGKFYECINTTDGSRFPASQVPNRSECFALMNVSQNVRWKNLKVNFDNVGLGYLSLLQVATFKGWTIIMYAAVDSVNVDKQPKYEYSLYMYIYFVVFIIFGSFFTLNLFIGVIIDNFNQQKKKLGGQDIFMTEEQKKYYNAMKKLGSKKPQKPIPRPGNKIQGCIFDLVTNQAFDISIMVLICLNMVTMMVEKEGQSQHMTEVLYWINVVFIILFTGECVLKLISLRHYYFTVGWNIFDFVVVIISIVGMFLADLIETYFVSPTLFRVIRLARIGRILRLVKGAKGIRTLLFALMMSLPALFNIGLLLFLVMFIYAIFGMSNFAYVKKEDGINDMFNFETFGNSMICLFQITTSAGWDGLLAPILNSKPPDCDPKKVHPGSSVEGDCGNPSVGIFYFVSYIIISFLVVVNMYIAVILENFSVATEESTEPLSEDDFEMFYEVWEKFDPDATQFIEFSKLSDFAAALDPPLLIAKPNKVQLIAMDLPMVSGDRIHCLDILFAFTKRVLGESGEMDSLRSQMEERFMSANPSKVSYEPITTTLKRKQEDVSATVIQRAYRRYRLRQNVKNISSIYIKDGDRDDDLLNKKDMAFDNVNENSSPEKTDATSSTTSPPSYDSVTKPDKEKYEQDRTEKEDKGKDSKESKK
Chain of human NaV1.7 (Q07699 19-218 partner): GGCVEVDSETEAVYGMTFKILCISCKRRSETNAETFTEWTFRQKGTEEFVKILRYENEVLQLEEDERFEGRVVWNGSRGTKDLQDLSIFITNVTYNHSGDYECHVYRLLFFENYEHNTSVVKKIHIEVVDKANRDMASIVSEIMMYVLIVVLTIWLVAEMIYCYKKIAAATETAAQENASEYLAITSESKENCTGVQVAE
Chain of human NaV1.7 tamoxifen receptor (Q15858 whole entry): as the sequence (Q15858 whole entry) above
Chain of NaV1.7 D1458A (Q15858 whole entry D1458A, the tested form may be a part): as the sequence (Q15858 whole entry) above, with D1458A counted along it
Chain of NaV1.7 D1458A (Q07699 19-218 partner): as the sequence (Q07699 19-218 partner) above
Chain of NaV1.7 S969A:D1761A double mutant (Homo sapiens, UniProt Q15858, E1761A/S969A) (Q15858 whole entry S969A/E1761A): as the sequence (Q15858 whole entry) above, with S969A, E1761A counted along it
Chain of NaV1.7 S969A:D1761A double mutant (Homo sapiens, UniProt Q15858, E1761A/S969A) (Q07699 19-218 partner): as the sequence (Q07699 19-218 partner) above

With “4-hydroxy-N-desmethyl benzophenone [4OH-ND-BP]” the “binding to NaV1.7 (in words)” value [1] was “specific binding”.
For `O=C(c1ccccc1)c1ccc(O)cc1` [4OH-BP, 4-hydroxy benzophenone], the “binding to NaV1.7 (in words)” value [1] was “specific binding”.
For `CC/C(=C(\c1ccc(O)cc1)c1ccc(OCCN(C)C)cc1)c1ccccc1` [4OH-Tam, 4-hydroxy tamoxifen], the “inhibition of DRG neuron INa (in words)” value [2] was “inhibit DRG neuron INa” and the “Hill slope coefficient of NaV1.7 INa inhibition” value [3] was 1.9.
In the case of `C=C(C)[C@@H]1CCC(C)=C[C@H]1c1c(O)cc(CCCCC)cc1O` [CBD, cannabidiol, reference compound], the “knee hyperalgesia vs vehicle, 30 minutes after injection” value ([4]; 4 weeks after DMM) is reported as “effectively inhibited knee hyperalgesia” and the “knee withdrawal threshold vs vehicle through 3 hours” value ([4]; 4 weeks after DMM) is reported as “remained elevated compared to vehicle control”.
In the case of `CC/C(=C(\c1ccccc1)c1ccc(OCCNC)cc1)c1ccccc1` [ND-Tam, N-desmethyl tamoxifen], the “change in ND-Tam potency” value [5] is reported as “little change”, the IC50 [6] is reported as 36000 nM and the “potency reduction compared to WT NaV1.7” value [7] is reported as “more than 21 times”. For the same compound, the “inhibition of DRG neuron INa (in words)” value [2] was “inhibit DRG neuron INa”, the “frequency dependence of DRG INa inhibition” value ([2]; 300 nM at 0.1, 10 and 20 Hz) was “enhanced current inhibition at greater depolarization frequencies” and the “block of the total INa” value ([2]; 1 μM) was “≈ 45%”. For the same compound, the “change in half-maximal activation of conductance (GV1/2)” value ([2]; 1 μM) was “no change”, the “voltage-dependence of inactivation after drug treatment” value ([2]; 1 μM) was −51.9 ± 0.4 mV and the “half-maximal conductance-voltage relationship (V1/2)” value ([2]; 1 μM ND-Tam conditions) was −37.7 ± 0.4 mV. For the same compound, the IC50 ([2]; −40 mV holding potential) was 3.9 nM, the IC50 ([2]; −60 mV holding potential) was 112 nM and the “INa that did not recover after removing drug from the bath” value ([2]; waiting 5 minutes after removal) was 86 ± 5%. For the same compound, the “area under the curve analysis of the first 3.5 hours post injection” value ([4]; 0.5 μM, after 3rd daily injection, compared to lidocaine or vehicle) was “superior efficacy”, the “knee hyperalgesia vs vehicle” value ([4]; 50 μM (~0.002 mg/kg) intra-articular, vehicle 50% EtOH, 4 weeks after DMM, 30 minutes after injection) was “rapidly inhibited knee hyperalgesia pain; also recorded: provided relief from hyperalgesia” and the “knee hyperalgesia vs vehicle, 30 minutes after injection” value ([4]; 4 weeks after DMM) was “effectively inhibited knee hyperalgesia”. The “knee withdrawal threshold vs vehicle through 3 hours” value ([4]; 4 weeks after DMM) was “remained elevated compared to vehicle control”, the “reduced potency of INa inhibition” value [8] was 3–7 times and the “Hill slope coefficient of NaV1.7 INa inhibition” value [3] was 2.2. The IC50 ([3]; read-out: IC50 of INa inhibition, WT NaV1.7) was 1700 nM, the “impact on the resting membrane potential” value ([9]; 100 nM, spontaneously firing neurons) was “insignificant impact” and the “reduction of the frequency of spontaneous action potentials” value ([9]; 100 nM, three-minute extracellular application, no current injected) was 91%. The “inhibition of action potential frequency and peak amplitude after washout” value ([9]; control saline for 2 minutes after drug) was “persistent” and the “change in potency or slope” value [10] was “no change in potency or slope”.
For `CNCCOc1ccccc1` [NM2P, N-methyl 2 phenoxyethanamine], the “binding to NaV1.7 (in words)” value [1] was “specific binding”.
In the case of `CCN(CC)CC(=O)Nc1c(C)cccc1C` [lidocaine, reference compound], the “knee hyperalgesia vs vehicle, 30 minutes after injection” value ([4]; 4 weeks after DMM) is listed as “effectively inhibited knee hyperalgesia”, the “knee withdrawal threshold vs vehicle through 3 hours” value ([4]; 4 weeks after DMM) is listed as “remained elevated compared to vehicle control” and the “knee hyperalgesia after local injection of a high dose” value [11] is listed as “able to acutely reverse knee hyperalgesia”.

Reference: paper PMC9523973 (Cell reports, 2022)
